What was measured:
C4-2 xenografts = assay: C4-2 xenograft in eugonadal mice; format: in vivo; conditions: C4-2 xenograft tumors
Method: (§1) Total RNA was extracted with GenElute Mammalian Total RNA miniprep kit (Sigma-Aldrich), and 1 μg RNA was reverse-transcribed to complementary DNA (cDNA) with the iScript cDNA Synthesis Kit (Bio-Rad). An ABI 7500 Real-Time PCR instrument (Applied Biosystems) was used to perform quantitative PCR (qPCR) analysis, using iTaq Fast SYBR Green Supermix with ROX (Bio-Rad) in 96-well plates at a final reaction volume of 10 μl. The qPCR analysis was carried out in triplicate with the following primer sets:
(§2) All mouse studies were performed under a protocol approved by the Institutional Animal Care and Use Committee of the Cleveland Clinic Lerner Research Institute. […]
(§3) To evaluate whether zanubrutinib suppresses tumor growth, 6 million C4-2 or 10 million VCaP cells (100 μl in 50% Matrigel and 50% growth media) were subcutaneously injected into mice. […] Tumor volume and progression-free survival were determined as described above. […] The number of mice in each group was determined by those that survived surgical procedures and had reached the 200 mm^3 tumor volume required to initiate treatment. Tumor diameters were measured by digital calipers three times per week and fresh frozen upon mouse sacrifice.
(§4) Androgens in xenografts were assessed by liquid chromatography tandem mass spectrometry as reported previously with slight modifications (Li et al., 2021; Zhu et al., 2018). […]

VCaP xenografts = assay: VCaP xenograft in eugonadal mice; format: in vivo; conditions: VCaP xenograft tumors
Method: as §1, §2, §3, §4

C=CC(=O)N1CCC([C@@H]2CCNc3c(C(N)=O)c(-c4ccc(Oc5ccccc5)cc4)nn32)CC1 [zanubrutinib, Zanubrutinib]
no significant effect: tumor testosterone by mass spectrometry (C4-2 xenografts) | AR target gene expression (C4-2 xenografts; qPCR) | tumor testosterone by mass spectrometry (VCaP xenografts) | AR target gene expression (VCaP xenografts; qPCR)

Source: US20240197744A1, “TREATING SEX STEROID DEPENDENT CANCER WITH BMX INHIBITORS” (The Cleveland Clinic Foundation, priority 2021, published 2024)
